We go through 9 molecules from ChEMBL document CHEMBL1909046, “DrugMatrix in vitro pharmacology data”.

The target of the first series is Cytochrome P450 2E1 (Homo sapiens, UniProt P05181). Further: in other assays of this panel Not Active means under 50% inhibition at 10 µM.
Cytochrome P450 2E1, sequence (P05181 whole entry): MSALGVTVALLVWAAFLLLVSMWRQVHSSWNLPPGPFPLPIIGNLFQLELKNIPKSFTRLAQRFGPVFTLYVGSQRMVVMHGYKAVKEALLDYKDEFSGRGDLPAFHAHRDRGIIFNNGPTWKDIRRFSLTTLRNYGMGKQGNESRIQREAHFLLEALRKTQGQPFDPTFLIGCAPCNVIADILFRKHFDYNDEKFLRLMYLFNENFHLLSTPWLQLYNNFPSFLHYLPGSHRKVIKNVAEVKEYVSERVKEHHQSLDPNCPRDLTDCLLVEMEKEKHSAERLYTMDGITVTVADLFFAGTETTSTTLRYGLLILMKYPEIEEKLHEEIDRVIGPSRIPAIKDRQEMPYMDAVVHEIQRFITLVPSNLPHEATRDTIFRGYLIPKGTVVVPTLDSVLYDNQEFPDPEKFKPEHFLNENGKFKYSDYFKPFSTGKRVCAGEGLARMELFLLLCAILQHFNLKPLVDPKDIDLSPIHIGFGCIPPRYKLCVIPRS
Test: not given
As to conditions: bti-tn-5b1-4.
The term IC50 denotes the concentration needed to halve the response being measured. Broadly, the Ki is a measure of affinity in units of concentration, obtained from inhibition or displacement. `CCCNCC(O)COc1ccccc1C(=O)CCc1ccccc1` (stereo unspecified) [PROPAFENONE]: the IC50 result was “Not Active” and the Ki result is given as “Not Active”.

Turning to `CCCOc1ccc(C(=O)OCCN(CC)CC)cc1N` [PROPARACAINE], the IC50 entry is reported as “Not Active” and the Ki result is recorded as “Not Active”.

Take `C[C@@H]1O[C@@H](O[C@@H]2C=C3CC[C@@H]4[C@H](CC[C@]5(C)[C@@H](c6ccc(=O)oc6)CC[C@]45O)[C@@]3(C)CC2)[C@H](O)[C@H](O)[C@H]1O` [PROSCILLARIDIN]: the IC50 result is “Not Active” and the Ki result is recorded as “Not Active”.

Take `Oc1cccc(O)c1O` [PYROGALLOL]: the IC50 entry is given as “Not Active” and the Ki result is “Not Active”.

As for AURANOFIN, the IC50 result was “Not Active” and the Ki result was “Not Active”.

For the molecule GADOPENTETATE DIMEGLUMINE, the IC50 result was “Not Active” and the inhibition constant Ki entry is on record as “Not Active”.

GENTAMICIN: the IC50 entry is reported as “Not Active” and the Ki result was “Not Active”.

Turning to GRAMICIDIN, the IC50 result is “Not Active” and the Ki entry was “Not Active”.

For the molecule NYSTATIN, the IC50 entry was “Not Active” and the Ki entry is reported as “Not Active”.

Test system in the next series: not listed separately
Kind of series: DRUGMATRIX: Phorbol Ester radioligand binding (ligand: [3H] PDBu). It is filed as cell membranes, Mus musculus, ICR, Brain, Membrane. As to conditions: Not Active = under 50% inhibition at 10 µM.
`CCCNCC(O)COc1ccccc1C(=O)CCc1ccccc1` (stereo unspecified) [PROPAFENONE]: the IC50 result is “Not Active” and the Ki entry is recorded as “Not Active”.

As to `CCCOc1ccc(C(=O)OCCN(CC)CC)cc1N` [PROPARACAINE], the 50% inhibitory concentration (IC50) result is “Not Active” and the Ki entry is reported as “Not Active”.

For `C[C@@H]1O[C@@H](O[C@@H]2C=C3CC[C@@H]4[C@H](CC[C@]5(C)[C@@H](c6ccc(=O)oc6)CC[C@]45O)[C@@]3(C)CC2)[C@H](O)[C@H](O)[C@H]1O` [PROSCILLARIDIN], the IC50 result is reported as “Not Active” and the Ki entry is given as “Not Active”.

As to `Oc1cccc(O)c1O` [PYROGALLOL], the IC50 result was “Not Active” and the inhibition constant Ki entry is on record as “Not Active”.

Turning to AURANOFIN, the IC50 result is “Not Active” and the Ki result is “Not Active”.

Take GADOPENTETATE DIMEGLUMINE: the half-inhibitory concentration (IC50) result is listed as “Not Active” and the Ki entry is on record as “Not Active”.

Take GENTAMICIN: the half-inhibitory concentration (IC50) entry is on record as “Not Active” and the inhibitory constant (Ki) result is reported as “Not Active”.

For GRAMICIDIN, the IC50 result is on record as “Not Active” and the Ki entry is “Not Active”.

NYSTATIN: the half-inhibitory concentration (IC50) entry is given as “Not Active” and the Ki result is reported as “Not Active”.

The target in another series is T1, Substance-K receptor (Homo sapiens, UniProt P21452). Further: in other assays of this panel Not Active means under 50% inhibition at 10 µM.
T1 sequence (P21452 whole entry): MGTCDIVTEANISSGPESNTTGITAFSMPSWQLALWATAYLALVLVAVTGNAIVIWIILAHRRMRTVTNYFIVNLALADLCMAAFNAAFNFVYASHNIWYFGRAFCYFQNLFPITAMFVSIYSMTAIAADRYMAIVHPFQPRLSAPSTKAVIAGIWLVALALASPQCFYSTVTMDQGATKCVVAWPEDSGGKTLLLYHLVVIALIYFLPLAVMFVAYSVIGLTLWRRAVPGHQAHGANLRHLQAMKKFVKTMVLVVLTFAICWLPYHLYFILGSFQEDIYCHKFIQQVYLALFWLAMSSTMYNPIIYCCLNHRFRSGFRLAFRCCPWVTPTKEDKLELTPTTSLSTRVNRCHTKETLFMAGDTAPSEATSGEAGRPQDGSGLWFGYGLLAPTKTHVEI
Test: not given
As to conditions: cho. Format: cell membranes, CHO, Membrane.
For the molecule `CCCNCC(O)COc1ccccc1C(=O)CCc1ccccc1` (stereo unspecified) [PROPAFENONE], the IC50 result is on record as “Not Active”.

For the molecule `CCCOc1ccc(C(=O)OCCN(CC)CC)cc1N` [PROPARACAINE], the IC50 result is recorded as “Not Active”.

Turning to `C[C@@H]1O[C@@H](O[C@@H]2C=C3CC[C@@H]4[C@H](CC[C@]5(C)[C@@H](c6ccc(=O)oc6)CC[C@]45O)[C@@]3(C)CC2)[C@H](O)[C@H](O)[C@H]1O` [PROSCILLARIDIN], the IC50 result is reported as “Not Active”.

For `Oc1cccc(O)c1O` [PYROGALLOL], the IC50 result was “Not Active”.

Take AURANOFIN: the IC50 entry was “Not Active” and the Ki entry is listed as “Not Active”.

In the case of GADOPENTETATE DIMEGLUMINE, the IC50 entry is “Not Active” and the Ki result was “Not Active”.

As to GENTAMICIN, the IC50 result is reported as “Not Active” and the Ki entry is recorded as “Not Active”.

NYSTATIN: the IC50 entry is reported as “Not Active” and the Ki entry is “Not Active”.

Still in this series, the particulars now being: cho; read-out: IC50.
On to GRAMICIDIN, for which the IC50 is 4.56 µM.

The same series, now with this note: cho; read-out: Ki.
GRAMICIDIN: the Ki stood at 1.52 µM.

For another series, the target named is Acetylcholinesterase (Homo sapiens, UniProt P22303). Description: DRUGMATRIX: Acetylcholinesterase enzyme inhibition (substrate: acetylthiocholine). Format: cell-based, HEK293. As to conditions: hek293; Not Active = under 50% inhibition at 10 µM.
Acetylcholinesterase, sequence (P22303 whole entry): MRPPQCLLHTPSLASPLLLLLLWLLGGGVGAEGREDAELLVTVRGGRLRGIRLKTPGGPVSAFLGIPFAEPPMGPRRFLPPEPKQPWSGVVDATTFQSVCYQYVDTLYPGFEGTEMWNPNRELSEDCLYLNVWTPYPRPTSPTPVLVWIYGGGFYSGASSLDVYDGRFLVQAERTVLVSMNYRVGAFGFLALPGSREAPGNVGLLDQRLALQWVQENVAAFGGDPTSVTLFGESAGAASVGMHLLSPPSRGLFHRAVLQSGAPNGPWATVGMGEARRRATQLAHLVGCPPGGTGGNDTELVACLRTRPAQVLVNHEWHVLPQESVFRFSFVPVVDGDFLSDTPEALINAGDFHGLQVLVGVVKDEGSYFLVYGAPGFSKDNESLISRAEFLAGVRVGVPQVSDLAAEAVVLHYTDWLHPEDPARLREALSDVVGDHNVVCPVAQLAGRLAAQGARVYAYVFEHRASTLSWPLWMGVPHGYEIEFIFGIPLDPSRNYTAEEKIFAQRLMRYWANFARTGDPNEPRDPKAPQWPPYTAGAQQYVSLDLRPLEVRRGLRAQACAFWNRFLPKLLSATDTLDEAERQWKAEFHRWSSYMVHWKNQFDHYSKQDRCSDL
For the molecule `CCCNCC(O)COc1ccccc1C(=O)CCc1ccccc1` (stereo unspecified) [PROPAFENONE], the IC50 entry was “Not Active”.

Turning to `CCCOc1ccc(C(=O)OCCN(CC)CC)cc1N` [PROPARACAINE], the IC50 entry was “Not Active”.

Regarding `C[C@@H]1O[C@@H](O[C@@H]2C=C3CC[C@@H]4[C@H](CC[C@]5(C)[C@@H](c6ccc(=O)oc6)CC[C@]45O)[C@@]3(C)CC2)[C@H](O)[C@H](O)[C@H]1O` [PROSCILLARIDIN], the IC50 result is “Not Active”.

As for `Oc1cccc(O)c1O` [PYROGALLOL], the IC50 result was “Not Active”.

AURANOFIN: the IC50 result is recorded as “Not Active” and the Ki result is “Not Active”.

With GADOPENTETATE DIMEGLUMINE, the IC50 entry was “Not Active” and the Ki entry is given as “Not Active”.

Turning to GENTAMICIN, the concentration for half-maximal inhibition (IC50) result is on record as “Not Active” and the Ki entry was “Not Active”.

Consider GRAMICIDIN, for which the concentration for half-maximal inhibition (IC50) entry is listed as “Not Active” and the Ki result was “Not Active”.

Consider NYSTATIN, for which the IC50 entry is listed as “Not Active” and the inhibitory constant (Ki) result is reported as “Not Active”.

In another series the target is Receptor tyrosine-protein kinase erbB-2 (Homo sapiens, UniProt P04626). Description: biochemical. It is filed as cell-based, Insect cells. Particulars: insect cells.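 Further: inhibition of HER2 kinase enzyme activity, measured with Poly(Glu:Tyr) as the phosphorylation substrate; in other assays of this panel Not Active means under 50% inhibition at 10 µM.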
As for `CCCNCC(O)COc1ccccc1C(=O)CCc1ccccc1` (stereo unspecified) [PROPAFENONE], the IC50 entry is “Not Active”.

Take `CCCOc1ccc(C(=O)OCCN(CC)CC)cc1N` [PROPARACAINE]: the IC50 result is on record as “Not Active”.

For the molecule `C[C@@H]1O[C@@H](O[C@@H]2C=C3CC[C@@H]4[C@H](CC[C@]5(C)[C@@H](c6ccc(=O)oc6)CC[C@]45O)[C@@]3(C)CC2)[C@H](O)[C@H](O)[C@H]1O` [PROSCILLARIDIN], the IC50 entry is “Not Active”.

Consider `Oc1cccc(O)c1O` [PYROGALLOL], for which the IC50 result was “Not Active”.

In the case of AURANOFIN, the concentration for half-maximal inhibition (IC50) result is “Not Active” and the inhibition constant (Ki) result is reported as “Not Active”.

On to GADOPENTETATE DIMEGLUMINE, for which the IC50 entry is “Not Active” and the inhibitory constant (Ki) result is “Not Active”.

For GENTAMICIN, the concentration for half-maximal inhibition (IC50) entry was “Not Active” and the Ki entry is given as “Not Active”.

As to GRAMICIDIN, the IC50 entry is “Not Active” and the Ki entry was “Not Active”.

On to NYSTATIN, for which the half-maximal inhibitory concentration (IC50) entry is “Not Active” and the Ki result was “Not Active”.

The next series addresses T2, Neuropeptide Y receptor type 2 (Homo sapiens, UniProt P49146).
T2 sequence (P49146 whole entry): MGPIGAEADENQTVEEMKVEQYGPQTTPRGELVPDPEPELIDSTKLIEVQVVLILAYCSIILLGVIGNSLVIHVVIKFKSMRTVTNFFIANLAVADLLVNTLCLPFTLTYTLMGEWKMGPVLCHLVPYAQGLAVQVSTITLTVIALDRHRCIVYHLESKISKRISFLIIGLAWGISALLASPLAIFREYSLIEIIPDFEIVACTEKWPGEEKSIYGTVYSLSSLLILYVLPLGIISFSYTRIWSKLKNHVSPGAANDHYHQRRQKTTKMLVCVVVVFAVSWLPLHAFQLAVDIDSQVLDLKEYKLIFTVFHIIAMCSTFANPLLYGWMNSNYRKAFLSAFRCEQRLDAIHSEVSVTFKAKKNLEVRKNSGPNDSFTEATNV
Test: not given
It is filed as cell membranes, KAN-TS, Membrane. Particulars: kan-ts.
As for `CCCNCC(O)COc1ccccc1C(=O)CCc1ccccc1` (stereo unspecified) [PROPAFENONE], the half-inhibitory concentration (IC50) entry is reported as “Not Active”.

Consider `CCCOc1ccc(C(=O)OCCN(CC)CC)cc1N` [PROPARACAINE], for which the IC50 result is reported as “Not Active”.

For the molecule `C[C@@H]1O[C@@H](O[C@@H]2C=C3CC[C@@H]4[C@H](CC[C@]5(C)[C@@H](c6ccc(=O)oc6)CC[C@]45O)[C@@]3(C)CC2)[C@H](O)[C@H](O)[C@H]1O` [PROSCILLARIDIN], the IC50 entry was “Not Active”.

For `Oc1cccc(O)c1O` [PYROGALLOL], the IC50 result is given as “Not Active”.

On to AURANOFIN, for which the IC50 result is given as “Not Active” and the Ki result is “Not Active”.

For GADOPENTETATE DIMEGLUMINE, the IC50 entry was “Not Active” and the Ki entry is recorded as “Not Active”.

With GENTAMICIN, the 50% inhibitory concentration (IC50) entry is listed as “Not Active” and the Ki result is listed as “Not Active”.

Turning to GRAMICIDIN, the IC50 entry is “Not Active” and the inhibition constant Ki entry is on record as “Not Active”.

As to NYSTATIN, the IC50 result is on record as “Not Active” and the Ki result is listed as “Not Active”.

A further series deals with Epidermal growth factor receptor (Homo sapiens, UniProt P00533). Description: DRUGMATRIX: Protein Tyrosine Kinase, EGF Receptor enzyme inhibition (substrate: Poly(Glu:Tyr)). Format: cell-based, Insect cells. Particulars: Not Active = under 50% inhibition at 10 µM; read-out: IC50.
On to `Oc1cccc(O)c1O` [PYROGALLOL], for which the IC50 was found to be 1.23 µM.

Staying with this series, now noted: insect cells; Not Active = under 50% inhibition at 10 µM.
Regarding `CCCNCC(O)COc1ccccc1C(=O)CCc1ccccc1` (stereo unspecified) [PROPAFENONE], the IC50 entry is on record as “Not Active”.

Take `CCCOc1ccc(C(=O)OCCN(CC)CC)cc1N` [PROPARACAINE]: the half-inhibitory concentration (IC50) entry is given as “Not Active”.

Consider `C[C@@H]1O[C@@H](O[C@@H]2C=C3CC[C@@H]4[C@H](CC[C@]5(C)[C@@H](c6ccc(=O)oc6)CC[C@]45O)[C@@]3(C)CC2)[C@H](O)[C@H](O)[C@H]1O` [PROSCILLARIDIN], for which the half-maximal inhibitory concentration (IC50) result is given as “Not Active”.

Consider AURANOFIN, for which the IC50 result was “Not Active” and the Ki entry is “Not Active”.

As to GADOPENTETATE DIMEGLUMINE, the concentration for half-maximal inhibition (IC50) result is “Not Active” and the Ki entry is “Not Active”.

For GENTAMICIN, the IC50 result is “Not Active” and the Ki result is listed as “Not Active”.

Regarding GRAMICIDIN, the IC50 result is recorded as “Not Active” and the Ki entry is “Not Active”.

Consider NYSTATIN, for which the IC50 entry is “Not Active” and the Ki entry was “Not Active”.
